According to patent publication US9187556B2, “SEMA5B peptides and vaccines including the same” (OncoTherapy Science, Inc., priority 2011, dated 2015):

Assays:
peptide-pulsed T2 cells [1] = assay: IFN-gamma ELISA of expanded CTL lines; assay type: cell-based, human; details: target cells pulsed with corresponding peptide vs without peptide pulse
Procedure: CTLs were expanded in culture using the method similar to the one described by Riddell et al. (Walter E A et al., N Engl J Med 1995 Oct. 19, 333(16): 1038-44; Riddell S R et al., Nat Med 1996 February, 2(2): 216-23). A total of 5×10^4 CTLs were suspended in 25 ml of AIM-V/5% AS medium with 2 kinds of human B-lymphoblastoid cell lines, inactivated by Mitomycin C, in the presence of 40 ng/ml of anti-CD3 monoclonal antibody (Pharmingen). One day after initiating the cultures, 120 IU/ml of IL-2 were added to the cultures. The cultures were fed with fresh AIM-V/5% AS medium containing 30 IU/ml of IL-2 on days 5, 8 and 11 (Tanaka H et al., Br J Cancer 2001 Jan. 5, 84(1): 94-9; Umano Y et al., Br J Cancer 2001 Apr. 20, 84(8): 1052-7; Uchida N et al., Clin Cancer Res 2004 Dec. 15, 10(24): 8577-86; Suda T et al., Cancer Sci 2006 May, 97(5): 411-9; Watanabe T et al., Cancer Sci 2005 August, 96(8): 498-506).
(§1) To examine specific CTL activity, interferon(IFN)-gamma enzyme-linked immunospot (ELISPOT) assay and IFN-gamma enzyme-linked immunosorbent assay (ELISA) were performed. Peptide-pulsed T2 (1×10^4/well) was prepared as stimulator cells. Cultured cells in 48-well plate, CTL lines and CTL clones were used as responder cells. IFN-gamma ELISPOT assay and IFN-gamma ELISA assay were performed under manufacture procedure.

peptide-pulsed T2 cells [2] = assay: IFN-gamma ELISPOT assay on CTLs induced with peptide-pulsed DCs; assay type: cell-based, human; details: CTLs from HLA-A*0201 positive donor, compared to control wells
Description: Monocyte-derived dendritic cells (DCs) were used as antigen-presenting cells to induce cytotoxic T lymphocyte (CTL) responses against peptides presented on human leukocyte antigen (HLA). DCs were generated in vitro as described elsewhere (Nakahara S et al., Cancer Res 2003 Jul. 15, 63(14): 4112-8). Specifically, peripheral blood mononuclear cells isolated from a normal volunteer (HLA-A*0201 positive) by Ficoll-Paque plus (Pharmacia) solution were separated by adherence to a plastic tissue culture dish (Becton Dickinson) so as to enrich them as the monocyte fraction. The monocyte-enriched population was cultured in the presence of 1000 U/ml of granulocyte-macrophage colony-stimulating factor (R&D System) and 1000 U/ml of interleukin (IL)-4 (R&D System) in AIM-V Medium (Invitrogen) containing 2% heat-inactivated autologous serum (AS). After 7 days of culture, the cytokine-induced DCs were pulsed with 20 micro g/ml of each of the synthesized peptides in the presence of 3 micro g/ml of beta 2-microglobulin for 3 hr at 37 degree C. in AIM-V Medium. The generated cells appeared to express DC-associated molecules, such as CD80, CD83, CD86 and HLA class II, on their cell surfaces (data not shown). These peptide-pulsed DCs were then inactivated by X ray-irradiated (20 Gy) and mixed at a 1:20 ratio with autologous CD8+ T cells, obtained by positive selection with CD8 Positive Isolation Kit (Dynal). These cultures were set up in 48-well plates (Corning); each well contained 1.5×10^4 peptide-pulsed DCs, 3×10^5 CD8+ T cells and 10 ng/ml of IL-7 (R&D System) in 0.5 ml of AIM-V/2% AS medium. Three days later, these cultures were supplemented with IL-2 (CHIRON) to a final concentration of 20 IU/ml. On day 7 and 14, the T cells were further stimulated with the autologous peptide-pulsed DCs. The DCs were prepared each time by the same way described above. CTLs were tested against peptide-pulsed T2 cells after the 3rd round of peptide stimulation on day 21 (Tanaka H et al., Br J Cancer 2001 Jan. 5, 84(1): 94-9; Umano Y et al., Br J Cancer 2001 Apr. 20, 84(8): 1052-7; Uchida N et al., Clin Cancer Res 2004 December 15, 10(24): 8577-86; Suda T et al., Cancer Sci 2006 May, 97(5): 411-9; Watanabe T et al., Cancer Sci 2005 August, 96(8): 498-506).
as §1

peptide-pulsed T2 cells [3] = assay: IFN-gamma ELISA of CTL clones established by limiting dilution; assay type: cell-based, human; details: target cells pulsed with each peptide
Procedure: The dilutions were made to have 0.3, 1, and 3 CTLs/well in 96 round-bottomed micro titer plate (Nalge Nunc International). CTLs were cultured with 1×10^4 cells/well of 2 kinds of human B-lymphoblastoid cell lines, 30 ng/ml of anti-CD3 antibody, and 125 U/ml of IL-2 in a total of 150 micro 1/well of AIM-VMedium containing 5% AS. 50 micro 1/well of IL-2 were added to the medium 10 days later so to reach a final concentration of 125 U/ml IL-2. CTL activity was tested on the 14th day, and CTL clones were expanded using the same method as described above (Uchida N et al., Clin Cancer Res 2004 Dec. 15, 10(24): 8577-86; Suda T et al., Cancer Sci 2006 May, 97(5): 411-9; Watanabe T et al., Cancer Sci 2005 August, 96(8): 498-506).
as §1

[4] = system: COS7 cells transfected with SEMA5B and HLA-A*0201; assay: Specific CTL activity against target cells expressing SEMA5B and HLA-A*0201; assay type: cell-based, African green monkey
Procedure: as §1
The cDNA encoding an open reading frame of target genes or HLA-A*0201 was amplified by PCR. The PCR-amplified product was cloned into expression vector. The plasmids were transfected into COS7, which is HLA-A*0201-null cell line, using lipofectamine 2000 (Invitrogen) according to the manufacturer's recommended procedures. After 2 days from transfection, the transfected cells were harvested with versene (Invitrogen) and used as the stimulator cells (5×10^4 cells/well) for CTL activity assay.

LLPSLTLLV [SEQ ID NO: 5, 9 mer peptide derived from SEMA5B, start position 70]
IFN-gamma production of CTL lines (peptide-pulsed T2 cells [1]): potent IFN-gamma production
Peptide-specific CTL activity (IFN-gamma production) (peptide-pulsed T2 cells [2]): potent IFN-gamma production
IFN-gamma production of CTL clones (peptide-pulsed T2 cells [3]): Potent IFN-gamma production

LLLPSLTLLV [SEQ ID NO: 27, 10 mer peptide derived from SEMA5B, start position 69]
IFN-gamma production of CTL lines (peptide-pulsed T2 cells [1]): potent IFN-gamma production
CTL activity of CTL line against COS7 cells expressing both SEMA5B and HLA-A*0201 ([4]; COS7 transfected with both full length SEMA5B and HLA-A*0201): potent CTL activity
CTL activity of CTL line against control COS7 cells ([4]; COS7 transfected with either full length SEMA5B or HLA-A*0201): no significant specific CTL activity was detected
Peptide-specific CTL activity (IFN-gamma production) (peptide-pulsed T2 cells [2]): potent IFN-gamma production
IFN-gamma production of CTL clones (peptide-pulsed T2 cells [3]): Potent IFN-gamma production

LIYGVFTTNV [SEQ ID NO: 34, 10 mer peptide derived from SEMA5B, start position 370]
IFN-gamma production of CTL lines (peptide-pulsed T2 cells [1]): potent IFN-gamma production
Peptide-specific CTL activity (IFN-gamma production) (peptide-pulsed T2 cells [2]): potent IFN-gamma production
IFN-gamma production of CTL clones (peptide-pulsed T2 cells [3]): Potent IFN-gamma production

GLLTLAVYL [SEQ ID NO: 7, 9 mer peptide derived from SEMA5B, start position 1049]
Peptide-specific CTL activity (IFN-gamma production) (peptide-pulsed T2 cells [2]): potent IFN-gamma production

MVLAGPLAV [SEQ ID NO: 8, 9 mer peptide derived from SEMA5B, start position 59; typical negative case]
Peptide-specific CTL activity (IFN-gamma production) (peptide-pulsed T2 cells [2]): not shown specific IFN-gamma production
